Measured values: patent US5766875A, “Metabolic monitoring of cells in a microplate reader” (priority 1995, dated 1998)
Where two headings read alike, the source gives them in different places.

Assays:
TF-1 cells [1] = assay: Effect of cell-affecting agents on activation of TF-1 cells by GM-CSF, extracellular acidification rate (Example 9); assay type: cell-based; settings: for inhibition at 10 µM: Homo sapiens
Experimental: The cell effects of beta-Maleimido proprionic acid (NMPA), N-Ethyl maleimide (NEM), Ferricyanide (Fe3 CN)^-3 (i.e. FeCN) and Cupric o-phenanthroline (Cu o-Ph) on the activation of TF-1 cells by GM-CSF was measured by a procedure similar to that used in Example 5. TF-1 cells were starved overnight in media lacking GM-CSF. The cells were washed twice and re-suspended in simple indicator medium at 1×10^6 cells/ml. The simple indicator medium contained one of the following test substances: NMPA, MEM, FeCN or Cu o-Ph at the tested concentration. A control test, which had no cell-affecting agent, was run in parallel. The cells in the simple indicator medium with or without cell-affecting agents were warmed to 37° C. for 20 minutes prior to the addition of recombinant human GM-CSF (obtained from Sandoz/Schering-Plough Corp.) to a final concentration of 0.1 ng/ml, and the extracellular acidification rate was measured by monitoring OD560/OD420 at 37° C. for 45 minutes. Additionally, a set of cells were mock treated with an equal volume of simple indicator medium but without any GM-CSF as a control for GM-CSF activation. The acidification rates were calculated from the slope of log(OD560/OD420) from 20 to 40 minutes after addition of the GM-CSF.
Generally, 0.1 ng/ml of GM-CSF caused a 100-150% increase in extracellular acidification rate. The cell-affecting agents inhibited the response of extracellular acidification to GM-CSF. Thus, these cell-affecting agents are inhibitory cell-affecting agents, while GM-CSF is a stimulatory cell-affecting agent. The measurements were made in duplicate and results are shown below as % inhibition of the response to GM-CSF, relative to control cells which received GM-CSF only.

[2] = Apparent pH change with temperature of buffering systems as indicated by phenol red; assay type: physicochemical; settings: phenol red pH indicator, 50 mM total buffer
mammalian cells = settings: cited from earlier work
TF-1 cells [3] = assay: Extracellular acidification by TF-1 cells in response to GM-CSF (Example 5); assay type: cell-based
Experimental: The results from using a preferred simple media (shown in Table 2) to monitor extracellular acidification by TF-I cells is shown in FIG. 13. The TF-1 cells and are grown in complete RPMI 1640 medium with 2.0 mM L-glutamine (Catalogue No. 430-1800, GIBCO-BRL, Grand Island, N.Y.) with added […], 50 μM β-mercaptoethanol, 1000 units/liter penicillin and 1.0 mg/liter streptomycin, 10% fetal bovine serum and Ing/ml GM-CSF (human Granulocyte/Macrophage--Colony Stimulating Factor) under 5% CO2 at 37° C.
The cells are maintained at between 5×10^5 cells per ml and 5×10^6 cells per ml. […]
The extracellular acidification measurements were done in a flat-bottom, 96-well polystyrene microplate placed in a THERMOmax™ microplate reader, set to 37° C. […] Extracellular acidification was measured with Automix™ on, and with SOFTMAX® software (Molecular Devices Corporation, Menlo Park, Calif.) and an Apple® Macintosh™ computer were used to kinetically monitor the optical density changes. The ratio of optical density at 560 nanometers/optical density at 420 nanometers, as a function of time, was measured by using the ODλ1 -ODλ2 feature of a THERMOmax™ microplate reader modified to measure ODλ1 /ODλ2 instead of ODλ1 -ODλ2 (as described previously). The log10 of the ratio of optical densities at 560 nanometers/optical density at 420 nanometers was calculated and plotted as a function of time. […]

TF-1 cells [4] = settings: TF-1 cells in culture; earlier work; cited from earlier work

## O=C(O)CCN1C(=O)C=CC1=O [NMPA, beta-Maleimido proprionic acid]
TF-1 cells [1]; 0.1 ng/ml GM-CSF, extracellular acidification
  inhibitory effects on GM-CSF activation (in words): weak in comparison to NEM and Cu o-Ph
TF-1 cells [1]; TF-1, 10 μM, 0.1 ng/ml GM-CSF, duplicate, read-out: % Inhibition GM-CSF Response
  inhibition at 10 µM: 3%

## O=C(O)CC(O)(CC(=O)O)C(=O)O [Citrate buffer]
[2]; with 1.0M NaCl added
  apparent change in pH with change in temperature: 8.06 millipH/°C.

## O=S(=O)(O)CCCN1CCOCC1 [MOPS, 3-[N-Morpholino]propanesulfonic acid]
[2]; equilibrium with CO2 in air
  apparent change in pH with change in temperature: less than 1 millipH/°C.

## Cupric o-phenanthroline [Cu o-Ph]
TF-1 cells [1]; 25 μM, 0.1 ng/ml GM-CSF, duplicate
  % Inhibition GM-CSF Response: 43%

## O=S(=O)(O)CCN1CCN(CCO)CC1 [HEPES, N-[2-Hydroxyethyl]piperazine-N'-[2-ethanesulfonic acid]]
[2]; equilibrium with CO2 in air
  apparent change in pH with change in temperature: -3.92 millipH/°C.

## NC(CO)(CO)CO [TRIS, tris[Hydroxymethyl]aminomethane]
[2]; equilibrium with CO2 in air
  apparent change in pH with change in temperature: -14.93 millipH/°C.
[2]; with 1.0M NaCl added
  apparent change in pH with change in temperature: -13.36 millipH/°C.

## O=S(=O)(O)CCN1CCOCC1 [MES, 2-[N-Morpholino]ethanesulfonic acid]
[2]; equilibrium with CO2 in air
  apparent change in pH with change in temperature: -4.74 millipH/°C.

## CCN1C(=O)C=CC1=O [NEM, N-Ethyl maleimide]
TF-1 cells [1]; TF-1, read-out: % Inhibition GM-CSF Response
  inhibition at 10 µM: 98%

## O=S1(=O)OC(c2ccc(O)cc2)(c2ccc(O)cc2)c2ccccc21 [Phenol Red, phenolsulfonephthalein]
Mammalian cells
  toxicity toward most mammalian cells: minimal toxicity

## O=S(=O)(O)CCCNC(CO)(CO)CO [TAPS, 3-{[tris-(hydroxymethyl)-methyl]-amino}-propanesulfonicacid]
[2]; equilibrium with CO2 in air
  apparent change in pH with change in temperature: -12.07 millipH/°C.

## GM-CSF: human Granulocyte/Macrophage--Colony Stimulating Factor
TF-1 cells [3]
  saturating levels (no observance of a dose response): greater than 0.05 ng/ml
TF-1 cells [1]; 0.1 ng/ml GM-CSF, 37° C.
  increase in extracellular acidification rate: 100-150%
TF-1 cells [4]
  concentration giving the optimum proliferation rate: approximately 1 ng/ml
